In patent US6737383B1, “Herbicidal oxadiazolidines” (priority 1999, dated 2004):

Columns and labels:
purple nutsedge = experiment: Test B pre/postemergence purple nutsedge; type: in vivo, Cyperus rotundus
How it was run: (§1)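 Herbicidal effect was estimated by eye on a ten-point control scale after plants spent twelve to sixteen days in a greenhouse following soil or foliar treatment. Foliar sprays targeted plants at one to four leaves; all doses were formulated in a non-phytotoxic solvent with surfactant.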

wheat = experiment: Test B pre/postemergence wheat; type: in vivo, Triticum aestivum
How it was run: as §1

smallflower flatsedge = experiment: Test B flood test smallflower flatsedge; type: in vivo, Cyperus difformis; conditions: for Plant response rating, S. Flatsedge (0 to 10 scale, 0 is no effect, 10 is complete control) / S. Flatsedge plant response rating (0 to 10 scale, 0 is no effect, 10 is complete control): visual evaluation after twelve to sixteen days; for S. Flatsedge plant response rating (0 to 10 scale, 0 is no effect, 10 is complete control): under heading Pre-emergence
How it was run: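 Read-out is a visual response score from 0 (no effect) to 10 (complete control), assigned by comparison with untreated controls. Treatment was applied at the 2-leaf stage, and plants stayed in the greenhouse for twelve to sixteen days before scoring.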

bedstraw = experiment: Test B pre/postemergence bedstraw; type: in vivo, Galium aparine
How it was run: as §1

[1] = Preemergence, Rate 62 g/ha, scale of 0 to 10 where 0 is no effect and 10 is complete control
[2] = Preemergence, Rate 250 g/ha, scale of 0 to 10 where 0 is no effect and 10 is complete control
[3] = Preemergence, Rate 500 g/ha, scale of 0 to 10 where 0 is no effect and 10 is complete control
[4] = Rate 62 g/ha, Postemergence, scale 0 to 10 (0 no effect, 10 complete control)
[5] = Rate 125 g/ha, Postemergence, scale of 0 to 10 where 0 is no effect and 10 is complete control
[6] = Rate 250 g/ha, Postemergence, scale of 0 to 10 where 0 is no effect and 10 is complete control
[7] = Rate 250 g/ha, Pre-emergence, flood-test species, scale 0 to 10, 0 is no effect, 10 is complete control
[8] = Rate 500 g/ha, Pre-emergence, flood test species, scale 0 to 10 (0 no effect, 10 complete control)
[9] = Rate 500 g/ha, Postemergence, scale 0 to 10, 0 no effect, 10 complete control
[10] = Postemergence, Rate 125 g/ha, scale 0 to 10, 0 is no effect, 10 is complete control
[11] = Postemergence, Rate 250 g/ha, scale 0 to 10, 0 is no effect, 10 is complete control
[12] = Preemergence, Rate 62 g/ha, scale 0 to 10 (0 no effect, 10 complete control)
[13] = Rate 62 g/ha, Postemergence, scale of 0 to 10 where 0 is no effect and 10 is complete control
[14] = Rate 62 g/ha, flood test species, Pre-emergence
[15] = Rate 125 g/ha, flood test species
[16] = Postemergence, Rate 500 g/ha, scale of 0 to 10 where 0 is no effect and 10 is complete control
[17] = Preemergence, Rate 125 g/ha, scale of 0 to 10 where 0 is no effect and 10 is complete control
[18] = Preemergence, Rate 250 g/ha, scale 0 to 10, 0 is no effect, 10 is complete control
[19] = Preemergence, Rate 500 g/ha, scale 0 to 10, 0 is no effect, 10 is complete control
[20] = Rate 125 g/ha, Postemergence, scale 0 to 10, 0 is no effect, 10 is complete control

Structure (SMILES) | Nutsedge plant response rating (0 to 10 scale) (purple nutsedge; Preemergence, Rate 125 g/ha) | Nutsedge plant response rating (purple nutsedge; [2]) | Nutsedge plant response rating (purple nutsedge; [3]) | Wheat plant response rating (0 to 10 scale) (wheat; Preemergence, Rate 125 g/ha) | Wheat plant response rating (wheat; [2]) | Wheat plant response rating (wheat; [3]) | S. Flatsedge plant response rating (smallflower flatsedge; [7]) | S. Flatsedge plant response rating (smallflower flatsedge; [8]) | Plant response rating, Nutsedge (purple nutsedge; [10]) | Plant response rating, Nutsedge (purple nutsedge; [11]) | Plant response rating, Nutsedge (purple nutsedge; [12]) | Nutsedge plant response rating (purple nutsedge; [13]) | Plant response rating, Nutsedge (purple nutsedge; [9]) | Plant response rating, Wheat (wheat; [10]) | Plant response rating, Wheat (wheat; [11]) | Plant response rating, Wheat (wheat; [12]) | Wheat plant response rating (wheat; [13]) | Plant response rating, Wheat (wheat; [9]) | Plant response rating, S. Flatsedge (0 to 10 scale, 0 is no effect, 10 is complete control) (smallflower flatsedge; [14]) | S. Flatsedge plant response rating (0 to 10 scale, 0 is no effect, 10 is complete control) (smallflower flatsedge; [15]) | further results
Cc1ccccc1-n1c(=O)on(C(=O)N(c2ccc(OC(F)(F)F)cc2)C(C)C)c1=O [Compound 300] | 0 | 0 | 0 | 0 | 0 | 2 | 0 | 0 | – | – | – | – | – | – | – | – | – | – | – | – | Nutsedge plant response rating (purple nutsedge; [1]): 0; Nutsedge plant response rating (purple nutsedge; [4]): 0; Nutsedge plant response rating (purple nutsedge; [5]): 0; Plant response rating, Nutsedge (purple nutsedge; [6]): 0; Wheat plant response rating (wheat; [1]): 0; Wheat plant response rating (wheat; [4]): 0; Wheat plant response rating (wheat; [5]): 0; Plant response rating, Wheat (wheat; [6]): 0; S. Flatsedge plant response rating (smallflower flatsedge; Rate 62 g/ha, headed Pre-emergence (flood test species), scale 0 to 10 (0 no effect, 10 complete control)): 0; S. Flatsedge plant response rating (smallflower flatsedge; Rate 125 g/ha, Pre-emergence, flood test species, scale 0 to 10 where 0 is no effect and 10 is complete control): 0; Bedstraw plant response rating (bedstraw; [2]): 0; Bedstraw plant response rating (bedstraw; [3]): 8; Bedstraw plant response rating (bedstraw; [4]): 0; Bedstraw plant response rating (bedstraw; [5]): 0; Plant response rating, Bedstraw (bedstraw; [6]): 0; Bedstraw plant response rating (bedstraw; [9]): 0
CC(C)N(C(=O)n1oc(=O)n(CCl)c1=O)c1ccc(F)cc1 [Compound 376] | 0 | 0 | 0 | 0 | 0 | 0 | 0 | 0 | 0 | 0 | 0 | 0 | 0 | 0 | 0 | 0 | 0 | 0 | 0 | 0 | –
Cc1nnsc1Cn1c(=O)on(C(=O)N(c2ccc(F)cc2)C(C)C)c1=O [Compound 380] | 0 | 0 | 0 | 0 | 0 | 0 | 0 | 0 | 0 | 0 | 0 | 0 | 0 | 0 | 0 | 0 | 0 | 0 | 0 | 0 | –
CC(C)N(C(=O)n1oc(=O)n(CCl)c1=O)c1ccccc1 [Compound 423] | – | – | – | – | – | – | – | – | – | 0 | 0 | – | – | – | – | 0 | – | – | – | – | Nutsedge plant response rating (purple nutsedge; [16]): 0; Plant response rating, Nutsedge (purple nutsedge; [17]): 0; Nutsedge plant response rating (purple nutsedge; [18]): 0; Nutsedge plant response rating (purple nutsedge; [19]): 0; Nutsedge plant response rating (purple nutsedge; [20]): 0; Wheat plant response rating (wheat; [16]): 0; Plant response rating, Wheat (wheat; [17]): 0; Wheat plant response rating (wheat; [18]): 0; Wheat plant response rating (wheat; [19]): 0; Wheat plant response rating (wheat; [20]): 0; S. Flatsedge plant response rating (smallflower flatsedge; Postemergence section (flood test species), Rate 500 g/ha, scale of 0 to 10 where 0 is no effect and 10 is complete control): 0; S. Flatsedge plant response rating (smallflower flatsedge; Rate 125 g/ha, Postemergence section (flood test species), scale 0 to 10, 0 is no effect, 10 is complete control): 0; Plant response rating, S. Flatsedge (smallflower flatsedge; flood test species, listed under Postemergence, Rate 250 g/ha, scale 0 to 10, 0 is no effect, 10 is complete control): 0
